Results: ChEMBL document CHEMBL2331345, “Syntheses of lipophilic chalcones and their conformationally restricted analogues as antitubercular agents” (Bioorg Med Chem Lett, 2013)
Converted amounts (≈) assume the structure as drawn. The source made the active and inactive calls. The calls are words filed in the database; no cut-off is given here.

Experiments:
[1] = test system: Mycobacterium tuberculosis; experiment: Antitubercular activity against Mycobacterium tuberculosis H37Rv ATCC 27294 assessed as growth inhibition at 250 ug/ml measured every 24 hrs by BACTEC radiosusceptibility assay; assay type: functional, organism-based
[2] = test system: Mycobacterium tuberculosis; experiment: Antitubercular activity against Mycobacterium tuberculosis assessed as growth inhibition; assay type: functional
[3] = test system: Mycobacterium tuberculosis; experiment: Antitubercular activity against Mycobacterium tuberculosis H37Rv ATCC 27294 assessed as growth inhibition measured every 24 hrs by BACTEC radiosusceptibility assay; assay type: functional; details: H37Rv ATCC 27294, 24 h
HEK293 = experiment: Cytotoxicity against human HEK293 cells assessed as inhibition of cell viability after 24 hrs by MTT assay; assay type: cell-based; details: HEK293, 24 h
[4] = Selectivity ratio of IC50 for human HEK293 cells to MIC for Mycobacterium tuberculosis H37Rv ATCC 27294; assay type: functional
Mycobacterium sp. = experiment: Antibacterial activity against Mycobacterium sp. assessed as growth inhibition; assay type: functional

Structure (SMILES): COc1ccc2c(/C=C/c3ccc(OC(C)=O)cc3)c(-c3ccccc3)c(=O)oc2c1
- growth inhibition (GI) [1]: inactive

Structure (SMILES): COc1ccc2c(/C=C/c3ccc(OCCN4CCCC4)cc3)c(-c3ccccc3)c(=O)oc2c1
- growth inhibition (GI) [1]: inactive

Structure (SMILES): C=CC(C)(C)c1cc(/C=C/C(=O)c2ccc(O)cc2)c(OC)cc1O [LICOAGROCHACONE A]
- MIC [2]: 7.1 µg/mL (≈ 21 µM)

Structure (SMILES): COc1ccc(C(=O)/C(=C/c2ccc(OCC(=O)O)cc2)c2ccccc2)cc1
- MIC [3]: 250 µg/mL (≈ 644 µM)

Structure (SMILES): COc1ccc(/C=C/c2c(-c3ccccc3)c(=O)oc3cc(O)ccc23)cc1
- IC50 (HEK293): > 250 µg/mL
- MIC [3]: 125 µg/mL (≈ 337 µM)

Structure (SMILES): COc1cc(CCc2ccc3c(c2)OCO3)oc(=O)c1
- MIC [2]: 32 µg/mL (≈ 117 µM)

Structure (SMILES): COc1ccc2c(/C=C/c3ccc(OC(C)CN(C)C)cc3)c(-c3ccccc3)c(=O)oc2c1 (stereo not drawn)
- IC50 (HEK293): 5 µg/mL (≈ 11 µM)
- MIC [3]: 7.5 µg/mL (≈ 16.5 µM)

Structure (SMILES): COc1ccc(C(=O)/C=C/c2ccc(O)cc2)c(O)c1
- growth inhibition (GI) [1]: inactive

Structure (SMILES): COc1ccc2c(/C=C/c3ccc(O)cc3)c(-c3ccccc3)c(=O)oc2c1
- Ratio [4]: 16
- IC50 (HEK293): > 250 µg/mL
- MIC [3]: 30 µg/mL (≈ 81 µM)

Structure (SMILES): COc1ccc(/C=C/C(=O)c2ccc(O)cc2O)cc1
- growth inhibition (GI) [1]: inactive

Structure (SMILES): CCCCNC(=O)COc1ccc(/C=C(/C(=O)c2ccc(OC)cc2)c2ccccc2)cc1
- growth inhibition (GI) [1]: inactive

Structure (SMILES): COc1ccc2ccc(=O)oc2c1CC=C(C)C [OSTHOLE]
- MIC [2]: 32 µg/mL (≈ 131 µM)

Structure (SMILES): CC(C)=CCC/C(C)=C/CC/C(C)=C/Cc1c(O)c2ccccc2oc1=O
- MIC (Mycobacterium sp.): 2 µg/mL (≈ 5.46 µM)

Structure (SMILES): CO[C@H]1/C=C/O[C@@]2(C)Oc3c(C)c(O)c4c(O)c(c(/C=N/N5CCN(C)CC5)c(O)c4c3C2=O)NC(=O)/C(C)=C\C=C\[C@H](C)[C@H](O)[C@@H](C)[C@@H](O)[C@@H](C)[C@H](OC(C)=O)[C@@H]1C [RIFAMPIN]
- MIC [3]: 2 µg/mL (≈ 2.43 µM)

Structure (SMILES): CN[C@@H]1[C@H](O[C@H]2[C@H](O[C@H]3[C@H](O)[C@@H](O)[C@H](N=C(N)N)[C@@H](O)[C@@H]3N=C(N)N)O[C@@H](C)[C@]2(O)C=O)O[C@@H](CO)[C@H](O)[C@H]1O [STREPTOMYCIN]
- MIC [3]: 2 µg/mL (≈ 3.44 µM)

Structure (SMILES): COc1cc(/C=C/c2ccccc2)oc(=O)c1 [DESMETHOXYYANGONIN]
- MIC [2]: 4 µg/mL (≈ 17.5 µM)

Structure (SMILES): CCCCN(C)C(=O)COc1ccc(/C=C(/C(=O)c2ccc(OC)cc2)c2ccccc2)cc1
- growth inhibition (GI) [1]: inactive

Structure (SMILES): COc1ccc2c(/C=C/c3ccc(OCCN4CCCCC4)cc3)c(-c3ccccc3)c(=O)oc2c1
- Ratio [4]: 2.85
- IC50 (HEK293): 5 µg/mL (≈ 10.4 µM)
- MIC [3]: 3.5 µg/mL (≈ 7.27 µM)

Structure (SMILES): COc1cc2oc(=O)ccc2cc1CC=C(C)C [SUBEROSIN]
- MIC [2]: 16 µg/mL (≈ 65.5 µM)

Structure (SMILES): COc1ccc(C(=O)/C(=C/c2ccc(O)cc2)c2ccccc2)cc1
- IC50 (HEK293): 50 µg/mL (≈ 151 µM)
- MIC [3]: 60 µg/mL (≈ 182 µM)

Structure (SMILES): CC(C)=CCOc1c2ccoc2cc2oc(=O)ccc12 [ISOIMPERATORIN]
- MIC [2]: 64 µg/mL (≈ 237 µM)
